{"source": "ChEMBL document CHEMBL5649167", "about": "“The SUV4-20 inhibitor A-196 verifies a role for epigenetics in genomic integrity” (Nat Chem Biol, 2017)", "key": {"[1]": {"biological_target": "Histone-lysine N-methyltransferase KMT5C (Homo sapiens, UniProt Q86Y97)", "sequence (Q86Y97 whole entry)": "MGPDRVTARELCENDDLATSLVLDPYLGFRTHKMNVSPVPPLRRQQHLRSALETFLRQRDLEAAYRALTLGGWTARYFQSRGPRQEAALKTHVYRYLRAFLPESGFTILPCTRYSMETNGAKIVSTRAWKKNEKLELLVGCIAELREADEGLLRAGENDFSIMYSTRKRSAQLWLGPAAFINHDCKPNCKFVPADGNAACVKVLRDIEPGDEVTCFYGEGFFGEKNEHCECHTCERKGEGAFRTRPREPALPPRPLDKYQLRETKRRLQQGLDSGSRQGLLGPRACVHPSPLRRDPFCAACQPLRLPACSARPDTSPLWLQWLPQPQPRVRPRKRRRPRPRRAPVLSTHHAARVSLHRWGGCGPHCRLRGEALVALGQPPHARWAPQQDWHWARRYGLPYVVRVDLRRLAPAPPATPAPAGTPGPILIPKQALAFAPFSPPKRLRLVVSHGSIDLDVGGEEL", "experiment": "Inhibition of human SUV420H2 using Biotin-tagged H4K20me1 and [3H-SAM] as substrate incubated for 2 hrs by scintillation proximity assay"}, "[2]": {"biological_target": "Histone-lysine N-methyltransferase KMT5B (Homo sapiens, UniProt Q4FZB7)", "sequence (Q4FZB7 whole entry, the tested form may be a part)": "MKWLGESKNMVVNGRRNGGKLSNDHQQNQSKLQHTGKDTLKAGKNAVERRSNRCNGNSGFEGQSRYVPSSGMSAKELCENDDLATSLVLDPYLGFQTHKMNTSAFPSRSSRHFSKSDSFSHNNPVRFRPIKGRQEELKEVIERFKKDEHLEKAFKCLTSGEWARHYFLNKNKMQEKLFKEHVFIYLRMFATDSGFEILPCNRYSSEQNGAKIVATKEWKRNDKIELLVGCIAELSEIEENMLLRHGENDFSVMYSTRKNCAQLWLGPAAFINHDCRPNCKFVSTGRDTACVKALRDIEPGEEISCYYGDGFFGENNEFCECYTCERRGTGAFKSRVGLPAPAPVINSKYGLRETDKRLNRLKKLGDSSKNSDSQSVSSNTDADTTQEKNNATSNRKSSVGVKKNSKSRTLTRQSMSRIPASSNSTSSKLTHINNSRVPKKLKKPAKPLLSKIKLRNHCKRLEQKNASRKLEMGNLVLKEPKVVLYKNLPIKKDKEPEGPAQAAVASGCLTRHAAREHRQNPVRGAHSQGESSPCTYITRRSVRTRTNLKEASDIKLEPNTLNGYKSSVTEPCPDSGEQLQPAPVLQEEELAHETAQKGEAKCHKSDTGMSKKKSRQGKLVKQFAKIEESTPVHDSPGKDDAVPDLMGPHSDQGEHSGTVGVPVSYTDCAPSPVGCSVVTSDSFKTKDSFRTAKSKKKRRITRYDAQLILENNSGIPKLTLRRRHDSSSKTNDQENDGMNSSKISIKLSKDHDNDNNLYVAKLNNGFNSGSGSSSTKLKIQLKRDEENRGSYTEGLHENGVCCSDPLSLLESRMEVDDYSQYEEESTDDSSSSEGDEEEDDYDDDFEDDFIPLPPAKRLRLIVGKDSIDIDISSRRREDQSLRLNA", "experiment": "Inhibition of recombinant human 6His-(Tev)-G-SUV420H1 (69 to 335 residues) using Biotin-tagged H4K20me1 and [3H-SAM] as substrate incubated for 2 hrs by scintillation proximity assay"}}}
{"smiles": "Clc1ccc2c(NC3CCCC3)ccnc2c1", "values": [{"measurement": "IC50", "setting": "[1]", "value": 4.8, "unit": "µM"}, {"measurement": "IC50", "setting": "[2]", "value": 5.9, "unit": "µM"}]}
{"smiles": "Clc1cc2nccc(NC3CCCC3)c2cc1Cl", "values": [{"measurement": "IC50", "setting": "[1]", "value": 1.2, "unit": "µM"}, {"measurement": "IC50", "setting": "[2]", "value": 0.59, "unit": "µM"}]}
